This passage reports IC50 results from patent US9187458B2, “Cyanoquinoline derivatives” (Tianjin Hemay Bio-Tech Co., LTD., priority 2010, dated 2015).

The structures appear in SMILES notation.

The IC50 is the concentration that gives 50% inhibition. Higher therefore signals a need for much substance.

Common to all, as to type: cell-based
One assay concerns CCRF-CEM/T cells. Put plainly: CCRF-CEM/T Cell Growth Inhibition Test (MTT Assay). Particulars: Homo sapiens, CCRF-CEM/T cells (resistant to paclitaxel), 72 h incubation. As to the method:
CCRF-CEM/T Cell Growth Inhibition Test (MTT Assay)
Cell strains: CCRF-CEM/T (human acute lymphocytic cell leukemia cells);
triple lysate solution: 10% SDS, 5% isobutanol, 0.012M HCl.
1. Cells were cultured to exponential phase. The cells were suspension cells;
2. The cells were collected by centrifuge. The resulting cells were resuspended in a complete culture medium to a desired concentration. The cells suspension was implanted into a 96-well cell culture plate by 20000 cells per well. A compound was added in the wellsuch that the final volume of the system was 120 μl. The system was further incubated for 72 h under 5% CO2 at 37° C.
7. 30 μl of serum-free culture solution containing 2.5 mg/ml MTT was added in each well, and incubated for 3 h;
8. 150 μl of triple lysate solution was added in each well and placed to dissolve at the room temperature;
9. OD values were determined at 570 nM.
(§1) 1. Calculation of Relative Inhibition Ratio The inhibition ratio of a compound on cell growth=(PC−n)/(PC−NC)×100%
(§2) IC50: Concentration of a compound where inhibition ratio was 50%. IC50 values were fitted with Origin7.5.

A further assay concerns NCI-H1650 cells. Briefly: NCI-H1650 Cell Growth Inhibition Test (SRB Assay). The following applies: Homo sapiens, 72 h incubation. On the procedure:
NCI-H1650 Cell Growth Inhibition Test (SRB Assay)
1. Cell strains: NCI-H1650 (human non-small cell lung cancer cell strains);
2. SRB, 0.4% (w/v) working solution was formulated with 1% glacial acetic acid and reserved at 4° C.; antitumor compounds; DMSO
1. A plate (10 cm) of cells in logarithmic growth phase normally cultured was collected;
2. The culture solution was sucked out. The plate was washed with 5 mL of PBS 1-2 times;
3. 1.5 mL of 0.25% pancreatin was added to the plate to infiltrate the cells;
4. The pancreatin was sucked out. The culture plate was placed in an incubator. Digestion was carried out for about 3 min at 37° C.;
5. 4 mL of complete culture solution was added to the culture plate to stop the digestion. The cells were carefully scoured with micropipette (1 ml) to give a uniform single cell suspension. The suspensin was implanted into a 96-well cell culture plate by 6000 cells/100 μl per well. The culture plate was incubated overnight under 5% CO2 at 37° C. In day 2, 100 μl of culture solution comprising a compound was added in each well, and further incubated for 72 h under 5% CO2 at 37° C.;
6. The culture solution was sucked out. 100 uL of TCA fixed cells which were diluted to 10% were added to each well. The plate was kept in a refrigerator for 1 h at 4° C.
7. TCA stationary liquid was sucked out. Each well was washed with 150 μL of ddH2O five times;
8. After the stationary liquid was cleansed, the plate was dried in the air at the room temperature;
9. 60 μL of SRB staining solution was added in each well. The well was stained for 15 min at the room temperature;
10. The SRB staining solution was sucked out. Each well was washed with 150 μL of 1% glacial acetic acid five times;
11. After the SRB staining solution was cleansed, the plate was dried in the air at the room temperature;
12. 100 μL of 10 mM Tris was added in each well, the plate was vibrated to dissolve out SRB;
13. OD values were determined at 570 nM.
as §1, §2

The next assay has as its system BxPc-3 cells. Briefly: BxPc-3 Cell Growth Inhibition Test (MTT Assay). Particulars: Homo sapiens, 72 h incubation. As to the method: BxPc-3 Cell Growth Inhibition Test (MTT Assay) Cell strains: BxPC-3 (human pancreatic cancer cell strains); Culture medium: 90% RPMI-1640+10% FBS; 1. A plate (10 cm) of cells in logarithmic growth phase normally cultured was collected; 2. The culture solution was sucked out. […] The plate was washed with 5 ml of PBS 1-2 times; 3. PBS was sucked out. 1.5 ml of 0.25% pancreatin was added to infiltrate the cells for 1 min; 4. The pancreatin was sucked out. The culture plate was placed in an incubator. Digestion was carried out for about 5 min at 37° C.; 5. 4.5 ml of complete culture solution was added to the culture plate to stop the digestion. The cells were carefully scoured with micropipette (1 ml) to give a uniform cell suspension. The suspension was implanted into a 96-well cell culture plate by 5000 cells/100 μl per well. The culture plate was incubated overnight under 5% CO2 at 37° C. In day 2, 100 μl of culture solution comprising a compound was added in each well, and further incubated for 72 h under 5% CO2 at 37° C. 6. The culture solution was sucked out; 7. 100 μl of serum-free culture solution containing 0.5 mg/ml MTT was added in each well, and incubated for 3 h; 8. The culture solution was carefully sucked out; 9. 100 μl of DMSO was added in each well and vibrated to dissolve; 10. OD values were determined at […]. 1. Calculation of Relative Inhibition Ratio The inhibition ratio of a compound on cell growth=(PC−n)/(PC−NC)×100% IC50: Concentration of a compound where inhibition ratio was 50%. IC50 values were fitted with Origin7.5.

With `CN(C)C/C=C/C(=O)Nc1cc2c(Nc3ccc(F)c(Cl)c3)c(C#N)cnc2cc1OC1CCOC1` (stereo not drawn) [Example 4, (E)-N-(4-(3-CHLORO-4-FLUOROPHENYLAMINO)-3-CYANO-7-(TETRAHYDROFURAN-3-YL-OXY)QUINOLIN-6-YL)-4-(DIMETHYLAMINO)-BUT-2-ENAMIDE], inhibition with CCRF-CEM/T cells was half-maximal at 5.8 µM (IC50). `C#Cc1cccc(Nc2c(C#N)cnc3cc(OC4CCOC4)c(NC(=O)/C=C/CN(C)C)cc23)c1` (stereo not drawn) [Example 5, (E)-N-(3-CYANO-4-(3-ETHYNYLPHENYLAMINO)-7-(TETRAHYDROFURAN-3-YL-OXY)QUINOLIN-6-YL)-4-(DIMETHYLAMINO)-BUT-2-ENAMIDE] had an IC50 in the assay with CCRF-CEM/T cells of 9 µM. `CN(C)C/C=C/C(=O)Nc1cc2c(Nc3ccc(OCc4cccc(F)c4)c(Cl)c3)c(C#N)cnc2cc1OC1CCOC1` (stereo not drawn) [Example 9, (E)-N-(4-(4-(3-FLUOROBENZYLOXY)-3-CHLOROPHENYLAMINO)-3-CYANO-7-(TETRAHYDROFURAN-3-YL-OXY)QUINOLIN-6-YL)-4-(DIMETHYLAMINO)-BUT-2-ENAMIDE]: in the assay on NCI-H1650 cells, half-maximal inhibition (IC50) required 0.636 µM. For `CN(C)C/C=C/C(=O)Nc1cc2c(Nc3ccc(OCc4ccccn4)c(Cl)c3)c(C#N)cnc2cc1O[C@H]1CCOC1` [Example 138, (S,E)-N-(4-(3-CHLORO-4-(PYRIDIN-2-YL-METHOXY)PHENYLAMINO)-3-CYANO-7-(TETRAHYDROFURAN-3-YL-OXY)QUINOLIN-6-YL)-4-(DIMETHYLAMINO)-BUT-2-ENAMIDE], the IC50 worked out at 5.6 µM with CCRF-CEM/T cells, 0.337 µM in the assay with BxPc-3 cells and 1.1 µM in the assay with NCI-H1650 cells.

For `CN(C)C/C=C/C(=O)Nc1cc2c(Nc3ccc(OCc4ccccn4)c(Cl)c3)c(C#N)cnc2cc1O[C@@H]1CCOC1` [Example 139, (R,E)-N-(4-(3-CHLORO-4-(PYRIDIN-2-YL-METHOXY)PHENYLAMINO)-3-CYANO-7-(TETRAHYDROFURAN-3-YL-OXY)QUINOLIN-6-YL)-4-(DIMETHYLAMINO)-BUT-2-ENAMIDE], the IC50 with CCRF-CEM/T cells worked out at 1.4 µM; in the assay with BxPc-3 cells, 0.188 µM; in the assay with NCI-H1650 cells it was 1.13 µM. As to `C#Cc1cccc(Nc2c(C#N)cnc3cc(O[C@H]4CCOC4)c(NC(=O)/C=C/CN(C)C)cc23)c1` [Example 140, (S,E)-N-(3-CYANO-4-(3-ETHYNYLPHENYLAMINO)-7-(TETRAHYDROFURAN-3-YL-OXY)QUINOLIN-6-YL)-4-(DIMETHYLAMINO)-BUT-2-ENAMIDE], the IC50 in the assay on CCRF-CEM/T cells was 7.9 µM. For `C#Cc1cccc(Nc2c(C#N)cnc3cc(O[C@@H]4CCOC4)c(NC(=O)/C=C/CN(C)C)cc23)c1` [Example 141, (R,E)-N-(3-CYANO-4-(3-ETHYNYLPHENYLAMINO)-7-(TETRAHYDROFURAN-3-YL-OXY)QUINOLIN-6-YL)-4-(DIMETHYLAMINO)-BUT-2-ENAMIDE], the IC50 in the assay on CCRF-CEM/T cells was found to be 9.1 µM. With `CN(C)C/C=C/C(=O)Nc1cc2c(Nc3ccc(F)c(Cl)c3)c(C#N)cnc2cc1O[C@H]1CCOC1` [Example 142, (S,E)-N-(4-(3-CHLORO-4-FLUOROPHENYLAMINO)-3-CYANO-7-(TETRAHYDROFURAN-3-YL-OXY)QUINOLIN-6-YL)-4-(DIMETHYLAMINO)-BUT-2-ENAMIDE], the IC50 with CCRF-CEM/T cells is 6.6 µM; with BxPc-3 cells, 0.416 µM. Compound `CCN(CC)C/C=C/C(=O)Nc1cc2c(Nc3ccc(OCc4ccccn4)c(Cl)c3)c(C#N)cnc2cc1O[C@H]1CCOC1` [Example 150, (S,E)-N-(4-(3-CHLORO-4-(PYRIDIN-2-YL-METHOXY)PHENYLAMINO)-3-CYANO-7-(TETRAHYDROFURAN-3-YL-OXY)QUINOLIN-6-YL)-4-(DIETHYLAMINO)-BUT-2-ENAMIDE] showed an IC50 in the assay with CCRF-CEM/T cells of 3.76 µM. As for `N#Cc1cnc2cc(O[C@H]3CCOC3)c(NC(=O)/C=C/CN3CCCCC3)cc2c1Nc1ccc(OCc2ccccn2)c(Cl)c1` [Example 151, (S,E)-N-(4-(3-CHLORO-4-(PYRIDIN-2-YL-METHOXY)PHENYLAMINO)-3-CYANO-7-(TETRAHYDROFURAN-3-YL-OXY)QUINOLIN-6-YL)-4-(PIPERIDIN-1-YL)-BUT-2-ENAMIDE], the IC50 in the assay with CCRF-CEM/T cells was determined as 3.6 µM.
